Compared with Cn1ncnc1COc1nn2c(-c3ccco3)nncc2c1-c1ccccc1F [Example 36, 3-(2-Fluorophenyl)-7-(furan-2-yl)-2-(2-methyl-2H-[1,2,4]triazol-3-ylmethoxy)pyrazolo[1,5-d][1,2,4]triazine], CCn1ncnc1COc1nn2c(-c3ccccc3F)nncc2c1-c1ccco1 [Example 91, 2-(2-Ethyl-2H-[1,2,4]triazol-3-ylmethoxy)-7-(2-fluorophenyl)-3-(furan-2-yl)pyrazolo[1,5-d][1,2,4]triazine] is lower in melting point: 204 to 206 °C for the first, 182 to 183 °C for the second.

First: Cn1ncnc1COc1nn2c(-c3ccccc3F)nncc2c1-c1cccc(F)c1 [Example 3, 3-(3-Fluorophenyl)-7-(2-fluorophenyl)-2-(2-methyl-2H-[1,2,4]triazol-3-ylmethoxy)pyrazolo[1,5-d][1,2,4]triazine]
Second: Cn1ncnc1COc1nn2c(-c3cccc(F)c3)nncc2c1-c1ccccc1F [Example 51, 3-(2-Fluorophenyl)-7-(3-fluorophenyl)-2-(2-methyl-2H-[1,2,4]triazol-3-ylmethoxy)pyrazolo[1,5-d][1,2,4]triazine]
The melting point of the first is higher: 176 °C for the first, 169 to 170 °C for the second.

Going from CCCn1ncnc1COc1nn2c(-c3ccc(F)cc3)nncc2c1C(C)(C)C [Example 39, 3-(1,1-Dimethylethyl)-7-(4-fluorophenyl)-2-(2-propyl-2H-[1,2,4]triazol-3-ylmethoxy)pyrazolo[1,5-d][1,2,4]triazine] to CCn1ncnc1COc1nn2c(-c3ccc(F)cc3)nncc2c1C(C)(C)C [Example 38, 3-(1,1-Dimethylethyl)-2-(2-ethyl-2H-[1,2,4]triazol-3-ylmethoxy)-7-(4-fluorophenyl)pyrazolo[1,5-d][1,2,4]triazine], the melting point rises from 154 °C to 190 °C.

Going from Cn1ncnc1COc1nn2c(-c3cccc(F)c3)nncc2c1-c1ccccc1 [Example 7, 7-(3-Fluorophenyl)-2-(2-methyl-2H-[1,2,4]triazol-3-ylmethoxy)-3-phenylpyrazolo[1,5-d][1,2,4]triazine] to Cn1ncnc1COc1nn2c(-c3cc(F)ccc3F)nncc2c1-c1ccccc1 [Example 13, 7-(2,5-Difluorophenyl)-2-(2-methyl-2H-[1,2,4]triazol-3-ylmethoxy)-3-phenylpyrazolo[1,5-d][1,2,4]triazine], the melting point rises from 198 °C to 199 °C.

First: Fc1ccccc1-c1c(OCc2ccncc2)nn2c(-c3ccccc3F)nncc12 [Example 64, 3,7-bis(2-Fluorophenyl)-2-(pyridin-4-ylmethoxy)pyrazolo[1,5-d][1,2,4]triazine]
Second: Fc1ccccc1-c1c(OCc2cccnn2)nn2c(-c3ccccc3F)nncc12 [Example 76, 3,7-bis(2-Fluorophenyl)-2-(pyridazin-3-ylmethoxy)pyrazolo[1,5-d][1,2,4]triazine]
The melting point of the first is lower: 143 °C for the first, 210 °C for the second.

Going from COc1cccnc1COc1nn2c(-c3ccccc3F)nncc2c1-c1ccccc1F [Example 67, 3,7-bis(2-Fluorophenyl)-2-(3-methoxypyridin-2-ylmethoxy)pyrazolo[1,5-d][1,2,4]triazine] to CCOc1cccnc1COc1nn2c(-c3ccccc3F)nncc2c1-c1ccccc1F [Example 68, 2-(3-Ethoxypyridin-2-ylmethoxy)-3,7-bis(2-fluorophenyl)pyrazolo[1,5-d][1,2,4]triazine], the melting point falls from 143 °C to 77 °C.

First: Fc1ccccc1-c1c(OCc2nc3n(n2)CCCC3)nn2c(-c3ccccc3F)nncc12 [Example 83, 3,7-bis(2-Fluorophenyl)-2-(5,6,7,8-tetrahydro[1,2,4]triazolo[1,5-a]pyridin-2-ylmethoxy)pyrazolo[1,5-d][1,2,4]triazine]
Second: Cn1cnc(COc2nn3c(-c4ccccc4F)nncc3c2-c2ccccc2F)n1 [Example 59, 3,7-bis(2-Fluorophenyl)-2-(1-methyl-1H-[1,2,4]triazol-3-ylmethoxy)pyrazolo[1,5-d][1,2,4]triazine]
The melting point of the first is lower: 150 to 152 °C for the first, 184 °C for the second.

Compared with CCn1ncnc1COc1nn2c(-c3ccccc3F)nncc2c1-c1ccccc1 [Example 5, 2-(2-Ethyl-2H-[1,2,4]triazol-3-ylmethoxy)-7-(2-fluorophenyl)-3-phenylpyrazolo[1,5-d][1,2,4]triazine], CCn1ncnc1COc1nn2c(-c3ccccc3F)nncc2c1-c1ccncc1 [Example 46, 2-(2-Ethyl-2H-[1,2,4]triazol-3-ylmethoxy)-7-(2-fluorophenyl)-3-(pyridin-4-yl)pyrazolo[1,5-d][1,2,4]triazine] is higher in melting point: 171 to 173 °C for the first, 214 to 217 °C for the second.

Going from CCn1ncnc1COc1nn2c(-c3ccc(F)cc3F)nncc2c1C(C)(C)C [Example 57, 7-(2,4-Difluorophenyl)-3-(1,1-dimethylethyl)-2-(2-ethyl-2H-[1,2,4]triazol-3-ylmethoxy)pyrazolo[1,5-d][1,2,4]triazine] to CCn1ncnc1COc1nn2c(-c3cc(F)ccc3F)nncc2c1C(C)(C)C [Example 22, 7-(2,5-Difluorophenyl)-3-(1,1-dimethylethyl)-2-(2-ethyl-2H-[1,2,4]triazol-3-ylmethoxy)pyrazolo[1,5-d][1,2,4]triazine], the melting point falls from 145 °C to 108 °C.

First: CCCn1ncnc1COc1nn2c(-c3ccc(F)cc3)nncc2c1-c1ccccc1F [Example 48, 3-(2-Fluorophenyl)-7-(4-fluorophenyl)-2-(2-propyl-2H-[1,2,4]triazol-3-ylmethoxy)pyrazolo[1,5-d][1,2,4]triazine]
Second: FCCn1ncnc1COc1nn2c(-c3ccccc3F)nncc2c1-c1ccccc1F [Example 86, 2-[2-(2-Fluoroethyl)-2H-[1,2,4]triazol-3-ylmethoxy]-3,7-bis(2-fluorophenyl)-pyrazolo[1,5-d][1,2,4]triazine]
The melting point of the first is lower: 148 °C for the first, 172 to 173 °C for the second.

Compared with Cn1nncc1COc1nn2c(-c3ccccc3F)nncc2c1-c1ccccc1F [Example 60, 3,7-bis(2-Fluorophenyl)-2-(3-methyl-3H-[1,2,3]triazol-4-ylmethoxy)pyrazolo[1,5-d][1,2,4]triazine], Cn1cc(COc2nn3c(-c4ccccc4F)nncc3c2-c2ccccc2F)nn1 [Example 61, 3,7-bis(2-Fluorophenyl)-2-(1-methyl-1H-[1,2,3]triazol-4-ylmethoxy)pyrazolo[1,5-d][1,2,4]triazine] is lower in melting point: 188 °C for the first, 175 °C for the second.

First: CC(C)n1ncnc1COc1nn2c(-c3cc(F)ccc3F)nncc2c1C(C)(C)C [Example 30, 7-(2,5-Difluorophenyl)-3-(1,1-dimethylethyl)-2-(2-isopropyl-2H-[1,2,4]triazol-3-ylmethoxy)pyrazolo[1,5-d][1,2,4]triazine]
Second: Cn1ncnc1COc1nn2c(-c3ccc(F)cc3F)nncc2c1C(C)(C)C [Example 56, 7-(2,4-Difluorophenyl)-3-(1,1-dimethylethyl)-2-(2-methyl-2H-[1,2,4]triazol-3-ylmethoxy)pyrazolo[1,5-d][1,2,4]triazine]
The melting point of the first is higher: 163 °C for the first, 118 °C for the second.

Compared with CCn1ncnc1COc1nn2c(-c3c(F)ccc(F)c3F)nncc2c1C(C)(C)C [Example 29, 3-(1,1-Dimethylethyl)-2-(2-ethyl-2H-[1,2,4]triazol-3-ylmethoxy)-7-(2,3,6-trifluorophenyl)pyrazolo[1,5-d][1,2,4]triazine], Cn1ncnc1COc1nn2c(-c3ccccc3F)nncc2c1C(C)(C)C [Example 24, 3-(1,1-Dimethylethyl)-7-(2-fluorophenyl)-2-(2-methyl-2H-[1,2,4]triazol-3-ylmethoxy)pyrazolo[1,5-d][1,2,4]triazine] is higher in melting point: 42 °C for the first, 128 °C for the second.

Going from Fc1ccccc1-c1c(OCc2ncccc2OC2CCC2)nn2c(-c3ccccc3F)nncc12 [Example 65, 2-(3-Cyclobutyloxypyridin-2-ylmethoxy)-3,7-bis(2-fluorophenyl)-pyrazolo[1,5-d][1,2,4]triazine] to Cn1ncnc1COc1nn2c(-c3ccccc3F)nncc2c1-c1ccccc1F [Example 2, 3-(2-Fluorophenyl)-7-(2-fluorophenyl)-2-(2-methyl-2H-[1,2,4]triazol-3-ylmethoxy)pyrazolo[1,5-d][1,2,4]triazine], the melting point rises from 66 °C to 169 °C.

First: Cn1ncnc1COc1nn2c(-c3ccccc3F)nncc2c1-c1cccs1 [Example 54, 7-(2-Fluorophenyl)-2-(2-methyl-2H-[1,2,4]triazol-3-ylmethoxy)-3-(thien-2-yl)pyrazolo[1,5-d][1,2,4]triazine]
Second: Cn1ncnc1COc1nn2c(-c3cccs3)nncc2c1-c1ccccc1 [Example 11, 2-(2-Methyl-2H-[1,2,4]triazol-3-ylmethoxy)-3-phenyl-7-(thien-2-yl) pyrazolo[1,5-d][1,2,4]triazine]
The melting point of the first is lower: 196 to 197 °C for the first, 209 °C for the second.

Compared with CCn1ncnc1COc1nn2c(-c3ccccc3F)nncc2c1-c1ccsc1 [Example 93, 2-(2-Ethyl-2H-[1,2,4]triazol-3-ylmethoxy)-7-(2-fluorophenyl)-3-(thien-3-yl)pyrazolo[1,5-d][1,2,4]triazine], Fc1ccccc1-c1c(OCc2ncnn2CC(F)F)nn2c(-c3ccccc3F)nncc12 [Example 85, 2-[2-(2,2-Difluoroethyl)-2H-[1,2,4]triazol-3-ylmethoxy]-3,7-bis(2-fluorophenyl)pyrazolo[1,5-d][1,2,4]triazine] is lower in melting point: 187 to 193 °C for the first, 179 to 180 °C for the second.

Compared with Cc1cc(COc2nn3c(-c4ccccc4F)nncc3c2-c2ccccc2F)nn1C [Example 90, 3,7-bis(2-Fluorophenyl)-2-(1,5-dimethyl-1H-pyrazol-3-ylmethoxy)-pyrazolo[1,5-d][1,2,4]triazine], CC(C)n1ncnc1COc1nn2c(-c3ccccc3F)nncc2c1-c1ccccc1F [Example 74, 3,7-bis(2-Fluorophenyl)-2-(2-isopropyl-2H-[1,2,4]triazol-3-ylmethoxy)-pyrazolo[1,5-d][1,2,4]triazine] is lower in melting point: 183 °C for the first, 179 °C for the second.

Compared with Cn1ncnc1COc1nn2c(-c3ccccc3F)nncc2c1-c1cc(F)cc(F)c1 [Example 20, 3-(3,5-Difluorophenyl)-7-(2-fluorophenyl)-2-(2-methyl-2H-[1,2,4]triazol-3-ylmethoxy)pyrazolo[1,5-d][1,2,4]triazine], Cn1ncnc1COc1nn2c(-c3ccc(F)cc3)nncc2c1C(C)(C)C [Example 37, 3-(1,1-Dimethylethyl)-7-(4-fluorophenyl)-2-(2-methyl-2H-[1,2,4]triazol-3-ylmethoxy)pyrazolo[1,5-d][1,2,4]triazine] is higher in melting point: 171 to 173 °C for the first, 197 °C for the second.
